Assay results taken from ChEMBL document CHEMBL2321675, “Irreversible inhibitors of cysteine proteases” (ACS Med Chem Lett, 2013).

What was measured:
[1] = biological target: T1, Caspase-10 (Homo sapiens, UniProt Q92851); assay: Inhibition of caspase-10 (unknown origin)
T1 sequence (Q92851 whole entry): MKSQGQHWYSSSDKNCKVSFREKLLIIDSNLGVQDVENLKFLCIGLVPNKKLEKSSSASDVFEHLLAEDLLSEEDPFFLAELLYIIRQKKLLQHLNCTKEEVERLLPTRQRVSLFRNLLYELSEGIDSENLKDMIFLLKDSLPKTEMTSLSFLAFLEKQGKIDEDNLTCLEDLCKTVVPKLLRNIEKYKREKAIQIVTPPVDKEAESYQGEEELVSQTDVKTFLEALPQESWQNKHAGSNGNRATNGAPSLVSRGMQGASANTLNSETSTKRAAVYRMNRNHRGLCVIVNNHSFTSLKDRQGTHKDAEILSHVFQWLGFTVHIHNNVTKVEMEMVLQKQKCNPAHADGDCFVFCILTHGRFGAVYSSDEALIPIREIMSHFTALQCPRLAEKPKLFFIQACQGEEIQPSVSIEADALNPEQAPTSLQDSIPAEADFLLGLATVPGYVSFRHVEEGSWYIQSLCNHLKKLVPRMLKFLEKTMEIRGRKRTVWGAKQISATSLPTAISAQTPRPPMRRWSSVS

[2] = biological target: T2, Caspase-9 (Homo sapiens, UniProt P55211); assay: Inhibition of caspase-9 (unknown origin)
T2 sequence (P55211 whole entry): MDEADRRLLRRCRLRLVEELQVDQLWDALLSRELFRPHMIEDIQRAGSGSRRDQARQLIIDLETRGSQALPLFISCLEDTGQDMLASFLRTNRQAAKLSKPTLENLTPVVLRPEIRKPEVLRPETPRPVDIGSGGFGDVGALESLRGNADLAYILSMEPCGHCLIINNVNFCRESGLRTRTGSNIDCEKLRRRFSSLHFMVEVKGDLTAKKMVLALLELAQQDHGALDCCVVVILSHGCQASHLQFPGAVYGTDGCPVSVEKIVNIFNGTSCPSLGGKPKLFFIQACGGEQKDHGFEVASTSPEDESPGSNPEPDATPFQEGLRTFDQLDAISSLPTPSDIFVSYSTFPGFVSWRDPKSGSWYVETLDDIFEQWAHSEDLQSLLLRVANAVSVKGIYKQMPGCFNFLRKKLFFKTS

[3] = biological target: Caspase-8 (Homo sapiens, UniProt Q14790); assay: Inhibition of caspase-8 (unknown origin)
Sequence of Caspase-8 (Q14790 217-374 limits assumed): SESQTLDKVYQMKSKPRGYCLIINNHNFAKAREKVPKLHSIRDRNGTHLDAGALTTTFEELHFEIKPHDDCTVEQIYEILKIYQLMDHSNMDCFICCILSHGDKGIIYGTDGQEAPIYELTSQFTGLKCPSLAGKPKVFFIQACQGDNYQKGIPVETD
Sequence of Caspase-8 (Q14790 385-479 limits assumed): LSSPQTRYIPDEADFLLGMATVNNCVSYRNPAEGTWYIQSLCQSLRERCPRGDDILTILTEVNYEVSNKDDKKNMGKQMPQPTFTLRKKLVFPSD

[4] = biological target: T3, Caspase-6 (Homo sapiens, UniProt P55212); assay: Inhibition of caspase-6 (unknown origin)
T3 sequence (P55212 whole entry): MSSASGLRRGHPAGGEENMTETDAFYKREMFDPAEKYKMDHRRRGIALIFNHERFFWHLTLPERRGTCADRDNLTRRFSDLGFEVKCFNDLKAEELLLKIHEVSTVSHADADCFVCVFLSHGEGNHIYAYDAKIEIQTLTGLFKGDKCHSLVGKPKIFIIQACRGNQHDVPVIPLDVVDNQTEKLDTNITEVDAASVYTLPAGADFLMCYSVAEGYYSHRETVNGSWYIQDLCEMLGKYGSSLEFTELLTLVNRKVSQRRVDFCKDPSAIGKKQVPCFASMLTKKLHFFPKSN

[5] = biological target: T4, Caspase-5 (Homo sapiens, UniProt P51878); assay: Inhibition of caspase-5 (unknown origin)
T4 sequence (P51878 whole entry): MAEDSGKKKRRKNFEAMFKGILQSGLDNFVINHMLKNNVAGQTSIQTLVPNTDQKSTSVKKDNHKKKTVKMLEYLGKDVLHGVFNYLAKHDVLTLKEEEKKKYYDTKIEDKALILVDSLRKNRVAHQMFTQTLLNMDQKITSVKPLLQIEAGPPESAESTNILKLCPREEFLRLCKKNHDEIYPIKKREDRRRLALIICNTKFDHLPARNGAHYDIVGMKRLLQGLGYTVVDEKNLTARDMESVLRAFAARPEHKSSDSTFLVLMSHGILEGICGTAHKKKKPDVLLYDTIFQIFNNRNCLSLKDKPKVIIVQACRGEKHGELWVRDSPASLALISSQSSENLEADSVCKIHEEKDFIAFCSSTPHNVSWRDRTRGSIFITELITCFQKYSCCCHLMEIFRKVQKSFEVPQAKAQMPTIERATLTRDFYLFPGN

[6] = biological target: T5, Caspase-7 (Homo sapiens, UniProt P55210); assay: Inhibition of caspase-7 (unknown origin)
T5 sequence (P55210 whole entry): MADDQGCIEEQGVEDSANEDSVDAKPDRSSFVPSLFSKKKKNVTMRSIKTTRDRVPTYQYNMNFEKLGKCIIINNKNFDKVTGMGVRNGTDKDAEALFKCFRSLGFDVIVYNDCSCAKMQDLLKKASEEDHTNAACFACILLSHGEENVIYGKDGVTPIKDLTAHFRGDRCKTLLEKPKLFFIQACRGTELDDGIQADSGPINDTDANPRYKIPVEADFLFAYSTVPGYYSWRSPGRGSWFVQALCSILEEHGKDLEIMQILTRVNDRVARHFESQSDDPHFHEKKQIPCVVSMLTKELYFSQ

[7] = biological target: T6, Caspase-4 (Homo sapiens, UniProt P49662); assay: Inhibition of caspase-4 (unknown origin)
T6 sequence (P49662 whole entry): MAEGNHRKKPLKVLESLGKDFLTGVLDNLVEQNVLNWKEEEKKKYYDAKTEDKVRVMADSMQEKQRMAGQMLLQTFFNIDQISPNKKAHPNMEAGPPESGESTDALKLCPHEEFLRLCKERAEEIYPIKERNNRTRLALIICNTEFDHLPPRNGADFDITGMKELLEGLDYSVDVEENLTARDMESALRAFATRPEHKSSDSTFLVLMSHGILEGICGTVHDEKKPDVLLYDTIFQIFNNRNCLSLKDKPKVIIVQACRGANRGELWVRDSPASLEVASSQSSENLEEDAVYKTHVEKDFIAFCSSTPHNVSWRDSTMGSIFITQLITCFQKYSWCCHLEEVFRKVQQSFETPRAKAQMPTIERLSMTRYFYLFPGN

[8] = biological target: T7, Caspase-3 (Homo sapiens, UniProt P42574); assay: Inhibition of caspase-3 (unknown origin)
T7 sequence (P42574 whole entry): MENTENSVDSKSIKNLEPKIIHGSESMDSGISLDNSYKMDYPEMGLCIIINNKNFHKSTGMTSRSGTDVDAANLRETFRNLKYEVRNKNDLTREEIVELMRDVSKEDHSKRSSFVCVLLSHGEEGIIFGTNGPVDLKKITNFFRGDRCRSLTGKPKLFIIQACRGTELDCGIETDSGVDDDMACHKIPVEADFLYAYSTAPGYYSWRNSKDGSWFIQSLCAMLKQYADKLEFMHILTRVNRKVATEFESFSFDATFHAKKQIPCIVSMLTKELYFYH

[9] = biological target: T8, Caspase-2 (Homo sapiens, UniProt P42575); assay: Inhibition of caspase-2 (unknown origin)
T8 sequence (P42575 whole entry): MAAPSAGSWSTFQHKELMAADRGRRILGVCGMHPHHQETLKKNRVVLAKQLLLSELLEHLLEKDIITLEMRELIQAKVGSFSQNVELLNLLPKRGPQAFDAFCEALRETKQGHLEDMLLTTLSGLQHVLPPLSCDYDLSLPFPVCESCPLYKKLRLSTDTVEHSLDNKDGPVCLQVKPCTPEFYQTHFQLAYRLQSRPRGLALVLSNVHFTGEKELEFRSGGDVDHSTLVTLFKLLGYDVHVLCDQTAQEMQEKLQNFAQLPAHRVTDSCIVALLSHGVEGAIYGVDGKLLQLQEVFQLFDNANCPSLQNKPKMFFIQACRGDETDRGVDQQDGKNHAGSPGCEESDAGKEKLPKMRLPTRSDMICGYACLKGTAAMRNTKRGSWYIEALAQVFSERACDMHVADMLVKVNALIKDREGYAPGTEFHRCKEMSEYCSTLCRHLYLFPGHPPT

[10] = biological target: T9, Caspase-1 (Homo sapiens, UniProt P29466); assay: Inhibition of caspase-1 (unknown origin)
T9 sequence (P29466 whole entry): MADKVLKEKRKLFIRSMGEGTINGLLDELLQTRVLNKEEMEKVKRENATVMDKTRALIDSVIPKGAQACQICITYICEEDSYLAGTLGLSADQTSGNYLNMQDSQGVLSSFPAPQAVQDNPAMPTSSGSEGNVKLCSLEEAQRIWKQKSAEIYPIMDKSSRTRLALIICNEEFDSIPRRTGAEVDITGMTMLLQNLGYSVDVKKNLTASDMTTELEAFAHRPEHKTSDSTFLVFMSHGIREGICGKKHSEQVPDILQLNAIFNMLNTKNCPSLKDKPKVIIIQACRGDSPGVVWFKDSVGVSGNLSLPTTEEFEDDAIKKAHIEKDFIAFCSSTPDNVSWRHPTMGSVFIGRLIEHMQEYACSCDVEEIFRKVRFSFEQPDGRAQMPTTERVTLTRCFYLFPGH

IC50 [1] [µM]	IC50 [2] [µM]	IC50 [3] [µM]	IC50 [4] [µM]	IC50 [5] [µM]	IC50 [6] [µM]	IC50 [7] [µM]	IC50 [8] [µM]	IC50 [9] [µM]	IC50 [10] [µM]	SMILES
3.3	1.74	5.93	100	0.75	23.7	0.18	6.5	> 100	0.026	CC[C@H](C)[C@H](NC(=O)[C@H](CCC(N)=O)NC(=O)[C@H](Cc1c[nH]c2ccccc12)NC(=O)OCc1ccccc1)C(=O)N[C@H](/C=C/S(C)(=O)=O)CC(=O)O
			> 100	> 100				> 100		CCOC(=O)/C=C/[C@H](CC(=O)O)NC(=O)[C@@H](NC(=O)[C@@H](NC(=O)[C@H](CC(=O)O)NC(=O)OCc1ccccc1)c1ccccc1)C(C)C
0.13	0.8	0.6	0.6	19.5	> 100	0.37	6.9	> 100	2.7	CC[C@H](C)[C@H](NC(=O)[C@H](CCC(N)=O)NC(=O)[C@@H](NC(=O)OCc1ccccc1)C(C)C)C(=O)N[C@H](/C=C/S(C)(=O)=O)CC(=O)O
2.67	2.3	12.9	> 100	0.56	24.5	0.09	> 100	> 100	0.02	CC(C)(C)[C@@H](NC(=O)c1ccc(N)c(Cl)c1)C(=O)N1CCC[C@H]1C(=O)N[C@H](/C=C/S(C)(=O)=O)CC(=O)O
0.42	1.1	4.1	> 100	35.2	0.5	5.6	0.28	13.1	13.2	CC(C)(C)[C@H](NC(=O)[C@H](CC(=O)O)NC(=O)OCc1ccccc1)C(=O)N1CC[C@H]1C(=O)N[C@H](/C=C/S(C)(=O)=O)CC(=O)O
